Laboratory results reported in US10280156B2, “Heteroaromatic chalcone derivatives and their medical use” (Medizinische Universität Wien, priority 2014, dated 2019).

Tests used:
MEC1 = assay: Viability test (CellTiter-Blue/EZ4U) on MEC1 cells, 48 h; assay type: cell-based, human; details: 48 h incubation, nd = no significant cytotoxic activity up to 100 μM
Method: (§1) JURKAT and CCRF-CEM (T-cell acute lymphoblastic leukemia), HL60 and K562 representing acute and chronic myeloid leukemia, respectively, the chronic lymphocytic leukemia cell line MEC-1, and the diffuse large B-cell lymphoma cell line U-2940 were cultured in Gibco RPMI 1640+GlutaMAX (Life Technologies, Carlsbad, Calif., USA) supplemented with 10% fetal bovine serum gold (FBS gold; PAA Laboratories, Pasching, Austria) and 1% PenStrep (100 U/ml penicillin and 100 μg/ml streptomycin; PAA Laboratories), and maintained at 37° C. in humidified atmosphere with 5% CO2. The diffuse large B-cell lymphoma cell line OCI-LY7 was cultured in Gibco IMDM+GlutaMAX and 25 mM HEPES (Life Technologies) containing 20% FBS gold and 1% PenStrep.
(§2) All experiments with hematological cell lines were done using phenol red-free RPMI 1640+L-glutamine (PAA Laboratories) supplemented with 1% PenStrep and 10% FBS gold, except experiments with OCI-Ly7 which were carried out in Gibco IMEM+GlutaMAX and 25 mM HEPES containing 20% FBS gold and 1% PenStrep. Cells were incubated in triplicates with increasing concentrations of the compounds for 48 h, changes in viability were determined using the cell proliferation and cytotoxicity assays EZ4U (Biomedica Group, Austria) and CellTiter-Blue Cell Viability Assay (Promega, Madison, Wis., USA) following instructions of the manufacturers. IC50 values were calculated from two independent experiments using GraphPad Prism 5 software.
(§3) Initially, compounds were biologically tested in six concentration steps (0.1 μM; 1 μM; 5 μM; 10 μM; 50 μM; and 100 μM) using the CellTiter-Blue Cell Viability Assay (Promega, Madison, Wis., USA) and an incubation time of 48 hours. […] IC50 values were calculated from at least two independent experiments with 3 replicates each. In order to evaluate the biologic activity of the new compounds, cytotoxicity was compared to that of fludarabine, an already approved drug for the treatment of various B-cell malignancies. […] Differences in IC50 values for the different cell types can be explained by the biological and genetic particularities of each subtype of B-cell Non-Hodgkin lymphoma (Stacchini A et al. Leukemia Res 1999, 23, 127-136; Sambade C et al. Int J Cancer 2006, 118, 555-563; Chang H et al. Leukemia lymphoma 1995, 19, 165-171; Tweeddale M E et al. Blood 1987, 69, 1307-1314; Tweeddale M et al. Blood 1989, 74, 572-578).

U-2940 = assay: Viability test on U-2940 cells, 48 h; assay type: cell-based, human; details: 48 h incubation, nd = no significant cytotoxic activity up to 100 μM
Method: as §1, §2, §3

M2-10B4 = assay: Viability test on mouse fibroblast cell line M2-10B4, 48 h; assay type: cell-based; details: for IC50: Mus musculus, M210B4, 48 h, 48 h incubation, mouse fibroblast cell line
Method: as §2
Structurally seen, the small molecule compound 1 represents a typical chalcone scaffold. It is characterized by an ortho-ethoxy-substituted phenyl part as ring A and a 2-naphthyl moiety symbolizing ring B. The focus of the present study was to guide the systematic identification of a growth inhibitor with specificity to neoplastic cells, as cytotoxicity towards healthy cells is mostly associated with adverse effects, which can be related to morbidity and mortality of the patient (Milligan D W et al. Brit J Haematol 2006, 135, 450-474). To discriminate in vitro between structural elements necessary for potent cytotoxicity towards tumor cells which, at the same time, clearly show less activity on normal cells, the compounds were additionally tested on the murine bone marrow fibroblast cell line M2-10B4. This cell line is regularly used as feeder layer when cultured with patient cells providing additional support and survival signals in particular in drug screens (Kurtova A V et al. Blood 2009, 114, 4441-4450).
as §3

OCI-Ly7 = assay: Viability test on OCI-Ly7 cells, 48 h; assay type: cell-based, human; details: 48 h incubation, nd = no significant cytotoxic activity up to 100 μM
Method: as §1, §2, §3

melting point [°C] | Structure (SMILES) | IC50 (MEC1; Homo sapiens, MEC1, 48 h) [µM] | IC50 (U-2940; Homo sapiens, U-2940, 48 h) [µM] | IC50 (M2-10B4) [µM] | IC50 (OCI-Ly7; Homo sapiens, OCI-Ly7, 48 h) [µM] | IC50 (MEC1) [µM] | IC50 (U-2940) [µM] | IC50 (OCI-Ly7) [µM] | cytotoxic potential on M2-10B4 (in words) (M2-10B4; mouse fibroblasts)
129 to 130 | CCOc1ccc(C(=O)/C=C/c2csc3ccccc23)cc1 [Compound 19, 3-(1-Benzothien-3-yl)-1-(4-ethoxyphenyl)-2-propen-1-one] | 7.5 | 14.6 | – | 4.77 | – | – | – | –
– | CCOc1cccc(C(=O)/C=C/c2ccc3c(c2)OCO3)c1 [Compound 34, (E)-3-(1,3-benzodioxol-5-yl)-1-(3-ethoxyphenyl)prop-2-en-1-one] | 8.73 | 18.8 | – | 6.35 | – | – | – | –
149 to 151 | CCOc1ccc(C(=O)/C=C/c2ccc3sccc3c2)cc1 [Compound 29] | 231 | – | – | – | – | – | – | –
– | CCOc1ccccc1C(=O)/C=C/c1c2ccccc2cc2ccccc12 [Compound 11, 3-(9-Anthranyl)-1-(2-ethoxyphenyl)-2-propen-1-one] | > 50 | > 50 | > 50 | > 50 | > 100 | > 100 | > 100 | –
100 to 101 | CCOc1ccc(C(=O)/C=C/c2cc3ccccc3o2)cc1 [Compound 33, (E)-3-(1-Benzofuran-2-yl)-1-(4-ethoxyphenyl)-2-propen-1-one] | 38.8 | 42.2 | – | 19.5 | – | – | – | –
79 to 81 | CCOc1ccccc1C(=O)/C=C/c1cc2ccccc2o1 [Compound 31, (E)-3-(1-Benzofuran-2-yl)-1-(2-ethoxyphenyl)-2-propen-1-one] | 0.2 | 7.1 | – | 0.05 | – | – | – | –
– | CCCOc1ccccc1C(=O)/C=C/c1ccc2ccccc2c1 [Compound 3, 3-(2-Naphthyl)-1-(2-propoxyphenyl)-2-propen-1-one] | 0.13 | 5.31 | > 100 | 0.1 | – | – | – | –
– | CCOc1ccccc1C(=O)/C=C/c1csc2ccccc12 [Compound 14, 3-(1-Benzothien-3-yl)-1-(2-ethoxyphenyl)-2-propen-1-one] | 0.17 | 0.86 | 8.2 | 0.1 | – | – | – | –
97 to 100 | CCOc1cccc(C(=O)/C=C/c2ccc3ccccc3c2)c1 [Compound 16, 3-(2-Napthyl)-1-(3-ethoxyphenyl)-2-propen-1-one] | 2.85 | 16.2 | – | 1.76 | – | – | – | –
– | C=Cc1cccc(/C=C/C(=O)c2ccccc2OCC)c1 [Compound 8, 3-(3-Ethenylphenyl)-1-(2-ethoxyphenyl)-2-propen-1-one] | 0.2 | 2.5 | > 100 | 0.5 | – | – | – | did not show any activity
114 to 116 | CCCOc1ccccc1C(=O)/C=C/c1ccc2[nH]ccc2c1 [Compound 25, (E)-3-(1H-indol-5-yl)-1-(2-propoxyphenyl)-2-propen-1-one] | 0.14 | 7.1 | – | 0.12 | – | – | – | –
103 to 106 | CCOc1cccc(C(=O)/C=C/c2csc3ccccc23)c1 [Compound 18, 3-(1-Benzothien-3-yl)-1-(3-ethoxyphenyl)-2-propen-1-one] | 2.21 | 7.59 | – | 1.67 | – | – | – | –
– | Cc1ccccc1C(=O)/C=C/c1ccc2ccccc2c1 [Compound 6, 1-(2-Methylphenyl)-3-(2-naphthyl)-2-propen-1-one] | 6.36 | 10.3 | 72 | 4.92 | – | – | – | –

Structure (SMILES) | melting point [°C] | IC50 (MEC1; Homo sapiens, MEC1, 48 h) [µM] | IC50 (U-2940; Homo sapiens, U-2940, 48 h) [µM] | IC50 (M2-10B4) [µM] | IC50 (OCI-Ly7; Homo sapiens, OCI-Ly7, 48 h) [µM] | IC50 (MEC1) [µM] | IC50 (U-2940) [µM] | IC50 (OCI-Ly7) [µM] | cytotoxic potential on M2-10B4 (in words) (M2-10B4; mouse fibroblasts)
CCOc1ccccc1C(=O)/C=C/c1cc2ccccc2c2ccccc12 [Compound 12, 1-(2-Ethoxyphenyl)-3-(9-phenanthrenyl)-2-propen-1-one] | 117 to 120 | 1.63 | 39.9 | > 100 | – | – | – | – | –
